These results are taken from patent US20230131402A1, “SPIRO-LACTAM NMDA RECEPTOR MODULATORS AND USES THEREOF” (Aptinyx Inc., priority 2016, published 2023).

The nature of one data set: IV pharmacokinetics. It is filed as in vivo, Sprague Dawley rats. The conditions noted are these: rat, 2 mg/kg, normal saline (compounds marked * in 1% NMP and 99% normal saline). The source says: The table below summarizes the results of the IV pharmacokinetics.
A further data set is described as follows: in vivo. Particulars: Sprague Dawley, rat, po, 10 mg/kg.
For data set [1] the following is noted: Sprague Dawley, rat, in vivo, po, 10 mg/kg.
Description: (§1) Plasma, brain, and CSF samples were analyzed at various time points over a 24 hour period.

The structures appear in SMILES notation. Read-outs that look alike come from different tables or passages of the source.

Description for in vivo: as §1

As usually defined, the AUC(0-t) is exposure summed from dosing to a finite time, without extrapolation to infinity. Higher therefore signals more exposure. Usually clearance stands for a measure of how efficiently the substance is removed, as volume per time. Lower therefore signals inefficient removal. The term half-life denotes how long it takes for the measured level to halve. A higher half-life goes with slow loss. The term Vss denotes a proportionality between amount in the body and measured concentration, not a real space. The low end stands for confinement near the circulation, the high end for extensive tissue distribution. A word on the Cmax: it is the peak of the concentration-time curve. Usually Tmax stands for the time from dosing to the highest level. In “IV pharmacokinetics” (Sprague Dawley, in vivo, iv), `C[C@@H](O)[C@H](N)C(=O)N1CCN(C)CC12CNC2=O` (single isomer, unassigned) [EJ-1, 5-(L-Threonyl)-8-Methyl-2,5,8-Triazaspiro[3.5]Nonan-1-One] showed an area under the curve AUC(0-t) of 3160 ng·h/mL, a clearance of 10.5 mL/min/kg and a half-life of 78 min. Also, in the data set “IV pharmacokinetics” (Sprague Dawley, in vivo, iv, read-out: C0), the C0 worked out at 4030 ng/mL. Further, the Vss in “IV pharmacokinetics” was 0.62 L/kg. Moreover, the AUC(0-t) in “in vivo” (AUClast) was 568 ng·h/mL. The concentration in “in vivo” (Cmax) peaked (Cmax) at 186 ng/mL. For the same compound, the time of peak concentration (Tmax) in the data set “in vivo” (Tmax) amounted to 45 min. Moreover, the “% F” value in data set [1] turned out to be 4%.

Turning to `C[C@@H](O)[C@H](N)C(=O)N1CCN(C)CC12CNC2=O` (single isomer, unassigned) [EJ-2, 5-(L-Threonyl)-8-Methyl-2,5,8-Triazaspiro[3.5]Nonan-1-One], in the data set “IV pharmacokinetics”, the AUClast is 1737 ng·h/mL, the C0 worked out at 3415.56 ng/mL, the Cl was determined as 18.95 mL/min/kg and the T1/2 is 1.59 h. Further, the Vss in the data set “IV pharmacokinetics” is reported as 1.35 L/kg. In data set [1], the “% F” value is on record as 9%, the AUClast was 811.97 ng·h/mL, the Cmax was 201.12 ng/mL and the time of peak concentration (Tmax) amounted to 1.33 h.
